# System: splenocytes cell line
# Assay: MTT assay for cytotoxicity
# Assay type: cell-based
# Conditions: splenocytes cell line 2×10^5 cells, 96-well plate
# Procedure: Additionally, MTT assay was performed for the observation of cytotoxicity by daurinol treatment. To this end, splenocytes cell line (2×10^5 cells) were plated on a 96-well plate, and daurinol was treated with MTT reagent and wrapped with aluminum foil, and reacted at 37° C. for 4 hours. After 4 hours, the crystals formed were dissolved in DMSO and the absorbance was measured using the ELISA reader.
smiles,measurement,value
COc1cc2c(-c3ccc4c(c3)OCO4)c3c(cc2cc1O)COC3=O [daurinol],cytotoxicity according to the concentration of daurinol (MTT),no significant cytotoxicity

# Source: US9526717B2, “Composition for treating immune diseases containing daurinol compound as active ingredient” (THE CATHOLIC UNIVERSITY OF KOREA INDUSTRY-ACADEMIC …, priority 2013, dated 2016)
